Source: ChEMBL document CHEMBL1125950, “Synthesis, siderophore, and antimicrobial evaluation of a spermidine-based tricatecholate siderophore and carbacephalosporin conjugate” (1991)

Columns and labels:
Type in all cases: functional
Escherichia coli [1] = experiment: Compound was evaluated for zone of stimulation of growth in Escherichia coli RWB18 at a concentration of 25 nM
Escherichia coli [2] = experiment: Compound was evaluated for zone of stimulation of growth in Escherichia coli RW193 at concentration of 25 nM
Escherichia coli [3] = experiment: Compound was evaluated for zone of stimulation of growth in Escherichia coli X580 at concentration of 25 nM
Escherichia coli [4] = experiment: Compound was evaluated for zone of stimulation of growth in Escherichia coli RW193 at concentration of 5 nM
Escherichia coli [5] = experiment: Compound was evaluated for zone of stimulation of growth in Escherichia coli RWB18 at a concentration of 5 nM
Escherichia coli [6] = experiment: Compound was evaluated for zone of stimulation of growth in Escherichia coli X580 at concentration of 5 nM

Row | Compound | Zone of stimulation (Escherichia coli [1]) | Zone of stimulation (Escherichia coli [2]) | Zone of stimulation (Escherichia coli [3]) | Zone of stimulation (Escherichia coli [4]) | Zone of stimulation (Escherichia coli [5]) | Zone of stimulation (Escherichia coli [6])
1 | O=C(O)CCC(=O)N(CCCCNC(=O)c1cccc(O)c1O)CCCNC(=O)c1cccc(O)c1O | 24 mm | – | – | – | – | –
2 | O=C(CCC(=O)N(CCCCNC(=O)c1cccc(O)c1O)CCCNC(=O)c1cccc(O)c1O)NCCCC[C@H](NC(=O)c1cccc(O)c1O)C(=O)O (stereo in doubt) | 24 mm | 28 mm | 22 mm | 22 mm | 16 mm | –
3 | O=C(CCC(=O)N(CCCCNC(=O)c1cccc(O)c1O)CCCNC(=O)c1cccc(O)c1O)NCCCC[C@H](NC(=O)c1cccc(O)c1O)C(=O)N[C@@H]1C(=O)N2C(C(=O)O)=C(Cl)CC[C@H]12 (stereo in doubt) | 20 mm | – | 12 mm | 12 mm | 12 mm | –
4 | O=C(CCC(=O)N(CCCCNC(=O)c1cccc(O)c1O)CCCNC(=O)c1cccc(O)c1O)NCCCC[C@H](NC(=O)c1cccc(O)c1O)C(=O)O (stereo in doubt; 7) | – | 24 mm | 20 mm | – | 24 mm | –
5 | O=C(CCC(=O)N(CCCCNC(=O)c1cccc(O)c1O)CCCNC(=O)c1cccc(O)c1O)NCCCC[C@H](NC(=O)c1cccc(O)c1O)C(=O)N[C@@H]1C(=O)N2C(C(=O)O)=C(Cl)CC[C@H]12 (stereo in doubt; 8) | 16 mm | 18 mm | 0 mm | – | 10 mm | –
6 | O=C(N[C@H]1COC(=O)[C@@H](NC(=O)c2cccc(O)c2O)COC(=O)[C@@H](NC(=O)c2cccc(O)c2O)COC1=O)c1cccc(O)c1O (stereo in doubt; form 1) [ENTEROBACTIN] | – | – | 38 mm | – | – | 24 mm
7 | O=C(N[C@H]1COC(=O)[C@@H](NC(=O)c2cccc(O)c2O)COC(=O)[C@@H](NC(=O)c2cccc(O)c2O)COC1=O)c1cccc(O)c1O (stereo in doubt; form 2) [ENTEROBACTIN] | – | – | 40 mm | – | – | 30 mm
